Where a name gives a salt, the structure may show the parent alone.
Assays:
[1] = Stability in moist environments and in processes involving water; type: physicochemical
[2] = Water vapor sorption/desorption (dynamic vapor sorption); details: two water sorption/desorption cycles, 25° C.
Description: The sample weight changes were monitored as function of the time and relative humidity. Two identical relative humidity-time experiment cycles (0 to 90% relative humidity) were performed to detect any changes in solid-state properties.

monoamine oxidase = details: cited from earlier work
muscaranic receptors = details: in vitro; cited from earlier work
histaminergic receptors = details: in vitro; cited from earlier work
adrenergic receptors = details: in vitro; cited from earlier work

Row | Structure (SMILES) | stability in moist environments ([1]; atmospheres having at least 20% relative humidity) | stability in processes involving water compared with known forms ([1]; processes involving water, such as wet granulation) | solid-state transition during dehydration/hydration cycling [2] | inhibitory activity on monoamine oxidase (monoamine oxidase) | affinity for muscaranic receptors (muscaranic receptors) | affinity for histaminergic receptors (histaminergic receptors) | affinity for adrenergic receptors (adrenergic receptors)
1 | COc1ccc(C(CN(C)C)C2(O)CCCCC2)cc1 (stereo not shown) [venlafaxine hydrochloride monohydrate] | stable | more stable than known forms | reversible |  |  |  | 
2 | COc1ccc(C(CN(C)C)C2(O)CCCCC2)cc1 (stereo not shown) [venlafaxine, 1-[2-(dimethylamino)-1-(4-methoxyphenyl)ethyl]cyclohexanol] |  |  |  | no inhibitory activity | virtually no affinity | virtually no affinity | virtually no affinity
